# Assay results as given in patent US11464745B2, “Solid pharmaceutical dosage formulations and processes” (UCL Business PLC, priority 2016, dated 2022).
# Experiments:
# [1] = Determination of drug loading by HPLC (drug degradation during SLS printing); format: physicochemical; conditions: SLS 3D printing, 445 nm 2.3 W laser
# Experimental: Tablets weighing approx. 300 mg, prepared as in example 1, were placed in a volumetric flask with deionized water (1 L) under magnetic stirring until complete dissolution.
# Samples of the solutions were then filtered through 0.45 μm filters (Millipore Ltd, Ireland) and the concentration of drug determined with high performance liquid chromatograph (HPLC). We used a Hewlett Packard 1050 Series HPLC system, Agilent Technologies, UK. The validated high performance liquid chromatographic assay entailed injecting 20 μL samples for analysis using a mobile phase, consisting of gradient system of (A) water adjusted to pH 2 with orthophosphoric acid and (B) acetonitrile, through a Luna 5 μm C18 column, 150×4.6 mm (Phenomenex, UK) maintained at 40° C. The mobile phase was pumped at a flow rate of 1 mL/min under the following gradient program: 0-15 min, 5-20% B; 15-16 min, 20-5% B.
# HPLC drug loading studies have been performed. […] (Goyanes et al. 3D printing of modified-release aminosalicylate (4-ASA and 5-ASA) tablets. Eur. J. Pharm. Biopharm. 89, 157-162).
# [2] = FDM printing; cited from earlier work
compound,measurement,setting,value
Nc1ccc(C(=O)O)c(O)c1 [4-ASA],drug degradation during the printing process (HPLC),[1],No degradation
same,drug degradation while printing,[2],degrade
